Measurements published in patent publication US20070009621A1, “Correcting systemic androgen levels using Eurycoma longifolia” (priority 2005, published 2007).

Test system: rat testicular cell homogenate
Assay: Incubation of rat testicular homogenate with pregnenolone and extract, capillary gas chromatography of steroids
Format: biochemical
Details: gas capillary analysis
Method: To preliminary assess the activity of Eurycoma longifolia, an extract of it was prepared and incubated with rat testicular cell homogenate. After the incubation was completed, the samples were measured using capillary gas chromatography to measure the presence of various hormones. 500 g of the dried pulverized root was boiled exhaustively with 5 L of distilled water for 24 hours. The extract was concentrated to a 40% mass, allowed to cool to room temperature, filtered using a 4 micron filter, then centrifuged at 10,000 rpm for five minutes. Supernatant was collected and freeze-dried yielding yellow brown colored fine powder. Tris/sucrose buffer, PH 7.4 was used as homogenizing buffer and medium for suspending the testicular homogenate. This buffer, consisting of 0.25M sucrose, 0.05M Tris-HCL, 0.025M KCl and 0.005M MgCl2H2O was prepared fresh and kept cool at 4° C. Sprague Dawley albino male rats were sacrificed by stunning followed by cervical dislocation. Testes were removed quickly, pooled and homogenized in Tris/sucrose buffer (10% w/v) using homogenizer. Homogenate was then centrifuged at 1000×g (3000 rpm) for 20 minutes to remove the nuclei and cell debris. Post-nuclei suspension was used for incubation studies; a portion of the suspension was reserved for protein determination. 10 ml of the testes homogenate was first treated with 5 ml ethyl acetate before incubation process. […]

SMILES: CC(=O)[C@H]1CC[C@H]2[C@@H]3CC=C4C[C@@H](O)CC[C@]4(C)[C@H]3CC[C@]12C [Prenenolone, Pregnenolone]
- An α (16-androstene steroid metabolite (pheromone)): 1.62
- An β Andien β (16-androstene steroid metabolites (pheromones)): 1.99
